# System: Endogenous Huntingtin Protein
# Assay: Endogenous Huntingtin Protein Assay (Meso Scale Discovery ELISA-based electrochemiluminescence)
# Assay type: cell-based
# Conditions: MSD electrochemiluminescence, Table 1
# Method: Compounds of Formula (I) were tested using the Meso Scale Discovery (MSD) Assay provided in International Application No. PCT/US2016/066042, filed on Dec. 11, 2016 and claiming priority to United States Provisional Application U.S. 62/265,652 filed on Dec. 10, 2015, the entire contents of which are incorporated herein by reference.
# The Endogenous Huntingtin Protein assay used in Example 1 was developed using the ELISA-based MSD electrochemiluminescence assay platform.
# Endogenous Huntingtin Protein Assay
# Meso Scale Discovery (MSD) 96-well or 384-well plates were coated overnight at 4° C. with MW1 (expanded polyglutamine) or MAB2166 monoclonal antibody (for capture) at a concentration of 1 μg/mL in PBS (30 μL per well). Plates were then washed three times with 300 μL wash buffer (0.05% Tween-20 in PBS) and blocked (100 μL blocking buffer; 5% BSA in PBS) for 4-5 hours at room temperature with rotational shaking and then washed three times with wash buffer.
# Samples (25 μL) were transferred to the antibody-coated MSD plate and incubated overnight at 4° C. After removal of the lysates, the plate was washed three times with wash buffer, and 25 μL of #5656S (Cell signaling; rabbit monoclonal) secondary antibody (diluted to 0.25 μg/mL in 0.05% Tween-20 in blocking buffer) was added to each well and incubated with shaking for 1 Hour at room temperature. Following incubation with the secondary antibody, the wells were rinsed with wash buffer after which 25 μL of goat anti-rabbit SULFO TAG secondary detection antibody (required aspect of the MSD system) (diluted to 0.25 μg/mL in 0.05% Tween-20 in blocking buffer) was added to each well and incubated with shaking for 1 hour at room temperature. After rinsing three times with wash buffer, 150 μL of read buffer T with surfactant (MSD) were added to each empty well, and the plate was imaged on a SI 6000 imager (MSD) according to manufacturers' instructions provided for 96- or 384-well plates.
row,SMILES,IC50
1,"Cn1cc2cc(-c3ccc4cc(C5CCNCC5)ccc4n3)ccc2n1 [Compound 1, 2-(2-methyl-2H-indazol-5-yl)-6-(piperidin-4-yl)quinoline]",1000 to 3000 nM
2,"CCN1CCC(c2ccc3nc(-c4ccc5nn(C)cc5c4)ccc3c2)CC1 [Compound 2, 6-(1-ethylpiperidin-4-yl)-2-(2-methyl-2H-indazol-5-yl)quinoline]",1000 to 3000 nM
3,"Cn1cc2cc(-c3ccc4nc(C5CCNCC5)ccc4c3)ccc2n1 [Compound 3, 6-(2-methyl-2H-indazol-5-yl)-2-(piperidin-4-yl)quinolone]",100 to 500 nM
4,"Cn1cc2cc(-c3cc4ccc(C5=CCNCC5)cc4nn3)ccc2n1 [Compound 4, 3-(2-methyl-2H-indazol-5-yl)-7-(1,2,3,6-tetrahydropyridin-4-yl)cinnoline]",500 to 1000 nM
5,"Cc1cc(C2CCNCC2)nc2ccc(-c3ccc4nn(C)cc4c3)cc12 [Compound 5, 4-methyl-6-(2-methyl-2H-indazol-5-yl)-2-(piperidin-4-yl)quinoline]",1000 to 3000 nM
6,"CN1CCC(c2ccc3cc(-c4ccc5nn(C)cc5c4)ccc3n2)CC1 [Compound 6, 6-(2-methyl-2H-indazo1-5-yl)-2-(1-methylpiperidin-4-yl)quinoline]",500 to 1000 nM
7,"Cn1cc2cc(-c3ccc4cc(N5CCNCC5)ccc4n3)ccc2n1 [Compound 7, 2-(2-methyl-2H-indazol-5-yl)-6-(piperazin-1-yl)quinoline]",1000 to 3000 nM
8,"CCN1CCC(c2ccc3cc(-c4ccc5nn(C)cc5c4)ccc3n2)CC1 [Compound 9, 2-(1-ethylpiperidin-4-yl)-6-(2-methyl-2H-indazol-5-yl)quinoline]",1000 to 3000 nM
9,"Cn1cc2cc(-c3ncc4cc(C5CCNCC5)ccc4n3)ccc2n1 [Compound 10, 2-(2-methyl-2H-indazol-5-yl)-6-(piperidin-4-yl)quinazoline]",100 to 500 nM
10,"Cc1cc(-c2ccc3nc(N(C)C4CC(C)(C)NC(C)(C)C4)ccc3c2)cc2cn(C)nc12 [Compound 11, 6-(2,7-dimethyl-2H-indazol-5-yl)-N-methyl-N-(2,2,6,6-tetramethylpiperidin-4-yl)quinolin-2-amine]",1000 to 3000 nM
11,"CN(c1ccc2cc(-c3ccc4nn(C)cc4c3)ccc2n1)C1CC(C)(C)NC(C)(C)C1 [Compound 12, N-methyl-6-(2-methyl-2H-indazol-5-yl)-N-(2,2,6,6-tetramethylpiperidin-4-yl)quinolin-2-amine]",500 to 1000 nM
12,"Cc1cc(-c2ccc3nc(C4=CC(C)(C)NC(C)(C)C4)ccc3c2)cc2cn(C)nc12 [Compound 13, 6-(2,7-dimethyl-2H-indazol-5-yl)-2-(2,2,6,6-tetramethyl-1,2,3,6-tetrahydropyridin-4-yl)quinoline]",1000 to 3000 nM
13,"Cc1cc(-c2ccc3nc(C4CC(C)(C)NC(C)(C)C4)ccc3c2)cc2cn(C)nc12 [Compound 14, 6-(2,7-dimethyl-2H-indazol-5-yl)-2-(2,2,6,6-tetramethylpiperidin-4-yl)quinoline]",100 to 500 nM
14,"Cc1cc(-c2ccc3nc(C4CCNCC4)ccc3c2)cc2cn(C)nc12 [Compound 15, 6-(2,7-dimethyl-2H-indazol-5-yl)-2-(piperidin-4-yl)quinoline]",≤ 100 nM
15,"Cc1cc(-c2ccc3nc(C4CCNCC4)nnc3c2)cc2cn(C)nc12 [Compound 16, 7-(2,7-dimethyl-2H-indazol-5-yl)-3-(piperidin-4-yl)-1,2,4-benzotriazine]",100 to 500 nM
16,"Cc1cc(-c2nnc3cc(C4CCNCC4)ccc3n2)cc2cn(C)nc12 [Compound 17, 3-(2,7-dimethyl-2H-indazol-5-yl)-7-(piperidin-4-yl)-1,2,4-benzotriazine]",≤ 100 nM
17,"Cc1cn2cc(-c3ccc4nc(C5CCNCC5)ccc4c3)nc(C)c2n1 [Compound 18, 6-(2,8-dimethylimidazo[1,2-a]pyrazin-6-yl)-2-(piperidin-4-yl)quinoline]",100 to 500 nM
18,"Cc1cn2nc(-c3ccc4nc(C5CCNCC5)ccc4c3)cc(C)c2n1 [Compound 19, 6-(2,8-dimethylimidazo[1,2-b]pyridazin-6-yl)-2-(piperidin-4-yl)quinoline]",≤ 100 nM
19,"Cc1cc(-c2cc(F)c3nc(C4CCNCC4)ccc3c2)cc2cn(C)nc12 [Compound 20, 6-(2,7-dimethyl-2H-indazol-5-yl)-8-fluoro-2-(piperidin-4-yl)quinoline]",≤ 100 nM
20,"Cc1cc(-c2ccc3nc(C4CCNCC4)ncc3c2)cc2cn(C)nc12 [Compound 23, 6-(2,7-dimethyl-2H-indazol-5-yl)-2-(piperidin-4-yl)quinazoline]",100 to 500 nM

row,SMILES,IC50
1,"Cn1cc2cc(-c3ccc4nc(C5CCNCC5)cnc4c3)cc(C(F)(F)F)c2n1 [Compound 24, 6-[2-methyl-7-(trifluoromethyl)-2H-indazol-5-yl]-2-(piperidin-4-yl)quinoxaline]",100 to 500 nM
2,"Cn1cc2cc(-c3nnc4cc(C5CCNCC5)ccc4n3)cc(F)c2n1 [Compound 25, 3-(7-fluoro-2-methyl-2H-indazol-5-yl)-7-(piperidin-4-yl)-1,2,4-benzotriazine]",≤ 100 nM
3,"Cn1cc2cc(-c3nnc4cc(C5CCNCC5)ccc4n3)cc(C#N)c2n1 [Compound 26, 2-methyl-5-[7-(piperidin-4-yl)-1,2,4-benzotriazin-3-yl]-2H-indazole-7-carbonitrile]",≤ 100 nM
4,"Cc1cn2cc(-c3nnc4cc(C5CCNCC5)ccc4n3)cc(C)c2n1 [Compound 27, 3-(2,8-dimethylimidazo[1,2-a]pyridin-6-yl)-7-(piperidin-4-yl)-1,2,4-benzotriazine]",100 to 500 nM
5,"Cc1cn2cc(-c3nnc4cc(C5CCNCC5)ccc4n3)cc2c(C)n1 [Compound 28, 3-(1,3-dimethylpyrrolo[1,2-a]pyrazin-7-yl)-7-(piperidin-4-yl)-1,2,4-benzotriazine]",1000 to 3000 nM
6,"Cc1cc(-c2cnc3cc(C4CCNCC4)ccc3c2)cc2cn(C)nc12 [Compound 29, 3-(2,7-dimethyl-2H-indazol-5-yl)-7-(piperidin-4-yl)quinoline]",1000 to 3000 nM
7,"Cc1cc(-c2ccc3cc(C4CCNCC4)ncc3c2)cc2cn(C)nc12 [Compound 30, 7-(2,7-dimethyl-2H-indazol-5-yl)-3-(piperidin-4-yl)isoquinoline]",100 to 500 nM
8,"Cc1cc(-c2ccc3nc(C4CCNCC4)cnc3c2)cc2cn(C)nc12 [Compound 31, 6-(2,7-dimethyl-2H-indazol-5-yl)-2-(piperidin-4-yl)quinoxaline]",100 to 500 nM
9,"Cn1cc2cc(-c3cc(F)c4nc(C5CCNCC5)nnc4c3)cc(F)c2n1 [Compound 32, 5-fluoro-7-(7-fluoro-2-methyl-2H-indazol-5-yl)-3-(piperidin-4-yl)-1,2,4-benzotriazine]",≤ 100 nM
10,"Cc1cc(-c2cc(F)c3nc(C4CCNCC4)nnc3c2)cc2cn(C)nc12 [Compound 33, 7-(2,7-dimethyl-2H-indazol-5-yl)-5-fluoro-3-(piperidin-4-yl)-1,2,4-benzotriazine]",≤ 100 nM
11,"Cc1cc(-c2cc(F)c3nc(C4CCNCC4)ncc3c2)cc2cn(C)nc12 [Compound 34, 6-(2,7-dimethyl-2H-indazol-5-yl)-8-fluoro-2-(piperidin-4-yl)quinazoline]",≤ 100 nM
12,"Cn1cc2cc(-c3cc(F)c4nc(C5CCNCC5)ncc4c3)cc(C#N)c2n1 [Compound 35, 5-[8-fluoro-2-(piperidin-4-yl)quinazolin-6-yl]-2-methyl-2H-indazole-7-carbonitrile]",≤ 100 nM
13,"Cn1cc2cc(-c3cc(F)c4nc(C5CCNCC5)ncc4c3)cc(F)c2n1 [Compound 36, 8-fluoro-6-(7-fluoro-2-methyl-2H-indazol-5-yl)-2-(piperidin-4-yl)quinazoline]",≤ 100 nM
14,"Cc1cn2nc(-c3cc(F)c4nc(C5CCNCC5)ncc4c3)cc(C)c2n1 [Compound 37, 6-(2,8-dimethylimidazo[1,2-b]pyridazin-6-yl)-8-fluoro-2-(piperidin-4-yl)quinazoline]",≤ 100 nM
15,"Cc1cc(-c2ccc3nc(C4CCNCC4)ncc3c2F)cc2cn(C)nc12 [Compound 38, 6-(2,7-dimethyl-2H-indazol-5-yl)-5-fluoro-2-(piperidin-4-yl)quinazoline]",1000 to 3000 nM
16,"Cc1cc(-c2cc3cnc(C4CCNCC4)nc3cc2F)cc2cn(C)nc12 [Compound 39, 6-(2,7-dimethyl-2H-indazol-5-yl)-7-fluoro-2-(piperidin-4-yl)quinazoline]",1000 to 3000 nM
17,"Cc1cn2cc(-c3nnc4cc(C5CCNCC5)cc(F)c4n3)cc(C)c2n1 [Compound 40, 3-(2,8-dimethylimidazo[1,2-a]pyridin-6-yl)-5-fluoro-7-(piperidin-4-yl)-1,2,4-benzotriazine]",100 to 500 nM
18,"Cc1cn2cc(-c3nnc4cc(C5CCNCC5)cc(F)c4n3)cc(F)c2n1 [Compound 41, 5-fluoro-3-(8-fluoro-2-methylimidazo[1,2-a]pyridin-6-yl)-7-(piperidin-4-yl)-1,2,4-benzotriazine]",100 to 500 nM
19,"Cc1cc(-c2cc(F)c3nc(N(C)C4CCNCC4)nnc3c2)cc2cn(C)nc12 [Compound 42, 7-(2,7-dimethyl-2H-indazol-5-yl)-5-fluoro-N-methyl-N-(piperidin-4-yl)-1,2,4-benzotriazin-3-amine]",100 to 500 nM

# Source: patent publication US12384789B2, “Compounds for treating Huntington's disease” (PTC Therapeutics, Inc., priority 2017, dated 2025)
